Experimental data: US10807951B2, “mTORC1 modulators” (THE REGENTS OF THE UNIVERSITY OF CALIFORNIA, priority 2017, dated 2020)
“Also recorded” adds a separate entry of the source.

Target: T1, Lamtor (a.k.a. Ragulator) and Rag GTPase protein complexes (Homo sapiens, UniProt O43504)
T1 construct: RFP (on the Ragulator complex); GST (large-scale screen); on the Ragulator complex; made in house; host or cells: HEK293T (small-scale screen), HEK293F (large-scale screen), transient transfection
Assay: Visual-IP of Rag GTPase binding to bead-bound Lamtor (Ragulator)
Settings: for disruption of Rag GTPase-Lamtor interaction (Visual IP): in vitro, GFP-RagB on RFP-Ragulator beads, 50 μM compound in small-scale screens
Source text: To assay for mTORC1-inhibiting compounds, we in vitro-reconstituted the interaction between the Lamtor (a.k.a. Ragulator) and Rag GTPase protein complexes, which are essential for amino acid-driven mTORC1 recruitment (and thus activation) to the lysosome (24, 30, 36, 37). We sequentially coated agarose beads with RFP-tagged Ragulator and with GFP-tagged Rag GTPases, resulting in Rag binding to the beads via their interaction with Lamtor. This method, which we call ‘Visual co-immunoprecipitation’ (Visual-IP) is essentially a binding reaction at equilibrium, in which the interaction between the two binding partners can be easily scored as color overlap between the bead-bound, red-tagged Lamtor and the soluble, green-fluorescent Rag GTPases. Interaction between the two proteins results in red-green color overlap (‘yellow beads’), whereas when the interaction is disrupted, partial or complete dispersion of the green signal in the surrounding buffer is observed (‘red beads’) (FIG. 1A and FIG. 1B). This assay could easily be scaled up and implemented in 384-well plates, which were imaged with the aid of an automated fluorescence microscope (FIG. 1C).
HEK293T cells were plated on 15 cm plates at 10 million cells per plate. 24 hours later, the cells were transfected using 500 μL OptiMEM transfection media, 60 μL polyethyleneimine (PEI, Sigma) and 10 μg total DNA. The transfection mix was incubated for 15 minutes and then added directly to the cell media. 48 hours later, the media was removed, and the cells were washed three times with PBS. The cells were scraped from the plate and collected in 10 mL PBS. The samples were centrifuged for 5 minutes at 1500 g at 4° C. The cell pellets were then resuspended in 1 mL Triton lysis buffer (1% Triton X-100, 130 mM NaCl, 2 mM EGTA, 2.5 mM MgCl2, 25 mM HEPES, pH 7.4, 10% glycerol, protease inhibitor (Pierce)), and allowed to rotate at 4° C. for 20 minutes. The samples were then centrifuged at 13000 g for 2 minutes, and the supernatant was separated for immunoprecipitation. 50 μL of washed anti-FLAG affinity beads (Sigma) were added to the supernatant and the sample was rotated at 4° C. for 2 hours. After immunoprecipitation, the samples were washed twice in Triton lysis buffer, once in high salt (500 mM NaCl) lyso sucrose buffer, and once in normal salt lyso sucrose buffer (250 mM sucrose, 10 mM KCl, 2 mM EGTA, 2.5 mM MgCl2, 25 mM HEPES, pH 7.4, 10% glycerol, protease inhibitor (Pierce)). Each wash consisted of rotating with the wash buffer for 5 minutes at 4° C. and subsequent centrifugation at 2000 g for 1 minute. For elution off FLAG beads, 3×-FLAG peptide in Phosphate Buffered Saline (PBS) was added to the sample, [RL2] and the sample was allowed to rotate overnight at 4° C. […]

displacement of Rag and Lamtor interactions (10 μM, dose-responsive) | disruption of Rag GTPase-Lamtor interaction (Visual IP) (listed as YP1-44) | SMILES | disruption of Rag GTPase-Lamtor interaction (Visual IP)
~50% | dispersion of the GFP-RagB signal | C=CC(=O)n1ccc2ccccc21 [YP 1-44] | causes RagB dissociation from Lamtor; also recorded: disrupted the interaction
 |  | C=CC(=O)N1CCc2c(OCc3cc(C(F)(F)F)cc(C(F)(F)F)c3)cccc21 [CC 1-44] | does not; also recorded: did not break the LAMTOR-Rag interaction in vitro
